Source: article PMC3462190, “A Peptidic Unconjugated GRP78/BiP Ligand Modulates the Unfolded Protein Response and Induces Prostate Cancer Cell Death” (PLoS ONE, 2012)
Each block holds one molecule with its values, some of them ahead of it. Where no end group is shown, it is not given here.

Assays:
22Rv.1 cells = experiment: Clonogenic assay; format: cell-based; conditions: neomycin selection, colonies quantified; mean ± SEM of at least three independent experiments
Text: Figure 5 An N-terminal unfolded fragment of the Bag-1 peptide is sufficient to reduce tumor cell growth. A. Schematic diagram of the Bag-1 peptide and its deletion mutants. The ubiquitin-like domain is represented in blue and the BAG domain in red. The numbers refer to the amino acid positions of the different domains. The amino acid residues are numbered following the numbering for Bag-1L. B. Prediction of the secondary structure of the Bag-1 peptide, showing an N-terminal β-hairpin from the ubiquitin-like domain (blue) and a C-terminal α-helix from the BAG domain (red). C. Normalized circular dichroism spectra of the Bag-1 peptides. 30 µM of the Bag-1 peptide were measured in 20 mM KHPO4 buffer, pH 6.8 (black line). Its α-helical content was estimated to be approximately 25% by deconvolution of the spectra (red line). 12 µM of the N-term peptide (green line) and 11 µM of C-term (blue line) were measured under the same conditions. D. ^1H^15N-HSQC NMR spectrum of ^15N-labeled Bag-1 peptide (202–269) in 20 mm KHPO4 buffer, pH 6.8, at 23°C. […] The Hδ and Hε side chain signals of asparagine and glutamine are connected by thin lines. E. The N-terminal region of the Bag-1 peptide is important for GRP78 binding. 400 µg of 22Rv.1 cell lysate were incubated with glutathione-agarose beads carrying 15 µg GST-N-term peptide (lane 2), GST-C-term peptide (lane 3), GST-ΔUbi peptide (lane 4), GST-Bag-1(202–269) peptide (lane 5) and GST (lane 6). The beads were washed and the bound proteins were separated by 10% SDS-PAGE and subjected to Western blotting using antibodies directed against GRP78 or GST. […] F. Clonogenic assay of the Bag-1 peptides expressed in 22Rv.1 cells. Cells transfected with the indicated constructs were selected in medium containing neomycin and the colonies formed were quantified. Shown are the mean value ±SEM of at least three independent experiments using three different plasmid preparations (*p<0.05). […] Six-week old athymic nude mice were injected subcutaneously on both flanks with 5×10^6 cells of each stable clone. Tumor size was measured once per week using a caliper and expressed as tumor volume in mm^3. Shown are the tumor volumes of clones transfected with the N-terminal peptide (G), the C-terminal peptide (H) and the ΔUbi peptide (I). Each point represents the mean volume and standard deviation of at least 5 to 10 tumors.
(§1) Figure 6 Selectivity of action of the Bag-1 peptide. A Amino acid sequence of the 19mer peptide and its deletion mutants. B GST pull-down assay performed incubating 400 µg of 22Rv.1 cell lysate and 25 µg of GST-fused deletion mutants of the 19mer peptide. After the pull-down experiment, Western blots were carried out with anti-GRP78/BiP and GST antibodies. C. Fluorescence polarization (FP) assays with a 10 nM FITC-labeled 7-mer Bag-1 peptide and dilutions of the GST-fused substrate binding domain of GRP78 in 60 µl of Tris-GSH buffer (50 mM Tris, 10 mM reduced glutathione and 0.1% BSA, pH 8.0). Triplicate samples were measured after 5 h of incubation at room temperature with an Infinite F-200 reader (Tecan) with excitation at 490 nm and emission at 535 nm. Binding constants were determined from three independent experiments using non-linear regression in Sigma Plot 10.0. D. Competition assays with a complex of 10 nM of FITC-labeled Bag-1 7-mer peptide and 0.75 mg/ml GST-fused GRP78 substrate binding domain was measured against a dilution series from 100 µM to 0.1 nM of wild-type Bag-1 7-mer peptide (filled line) or triple mutant peptide (dotted line) in 40 µl of Tris-GSH buffer. FITC-peptide and the FITC-peptide-protein complex were used as controls. Fluorescence polarization was determined as described above and IC50 values were determined in Sigma Plot. […]

[1] = test system: unfolded protein response in 22Rv.1 cells; experiment: UPR modulation, Western blot / PCR in 22Rv.1 cells; format: cell-based
Experimental: Unless otherwise stated, stable transfection was carried out in 22Rv.1 or BPH-1 cells with 10 µg of plasmid DNA using FuGene 6™ (Roche Diagnostics Mannheim, Germany) Stably transfected 22Rv.1 cells were selected with 0.8 mg/ml while BPH-1 cell clones were selected with 1.2 mg/ml G418. LNCaP, PC3, DU145, PNT-2 and RWPE-1 cell clones were selected with 1 mg/ml G418. Specific downregulation of GRP78 expression was achieved by transfecting siRNA-duplexes (GRP78∶5′-[…]-3′) twice in 72 h using HiPerfect™ (Qiagen Hilden, Germany). siRNA against GFP (5′-[…]-3′) was used as a control. Western blot analysis was performed as previously described.
Figure 3 The Bag-1 peptide modulates the UPR and sensitizes 22Rv.1 cells to ER-stress. A. UPR modulation upon Bag-1 peptide overexpression. Pooled clones of 22Rv.1 cells transfected with pcDNA3.1-HA-Bag-1 68 amino acid peptide or an empty expression vector were treated with 300 nM thapsigargin (TG) for the indicated time points. Cells were lysed and subjected to Western blot analysis using the indicated antibodies or phospho-specific antibodies. B. The Bag-1 peptide sensitizes 22Rv.1 cells to ER-stress induced apoptosis. Pooled clones of 22Rv.1 transfected with the Bag-1 peptide or the empty expression vector were treated with thapsigargin (TG) or glucose-starved (GS) for 24 h. The cells were lysed and subjected to Western blot analysis using anti-PARP and caspase 4 specific antibodies. Anti-HA antibody was used to detect the HA-Bag-1 peptide. […] C. […] Pooled clones of 22Rv.1 expressing HA-tagged Bag-1 peptide or an empty expression vector were transfected with GRP78/BiP siRNA or control GFP siRNA. The cells were lysed and Western blot was carried out with anti-PARP, anti-GRP78 and anti-HA antibodies. β-actin antibody was used to determine the level of protein loaded on the gel.
(§2) A. Real time PCR analysis of ATF6 gene expression following thapsigargin (300 nM) treatment for the indicated time points in 22Rv.1 cell clones with empty vector control (open bars) and peptide-expressing clones (filled bars). The RNA was extracted using PeqGold RNA pure (PeqLab, Germany) kit according to manufacturer’s instructions. For gene expression analysis, the following primers were used: Rib36 forward 5′-[…]-3′; reverse 5′-CCGGATATGAGGCAGCAG-3′; ATF6 forward 5′-[…]-3′; reverse 5′-[…]-3′. Each bar represents the mean of three independent experiments ± SEM. *p<0.05. B. Western blot analysis of ATF6 and its cleaved product (cATF6) in LNCaP cells stably expressing the empty vector control or the Bag-1 peptide. Anti-ATF6 specific antibody and an anti-HA specific antibody were used for the Western blot. β-actin antibody was used to determine equal loading control. Mouse monoclonal anti-ATF6 antibody was purchased from Imgenex (Hamburg, Germany), mouse monoclonal anti-HA antibody (HA.11 clone 16B12) was purchased from Covance (Munich, Germany) and anti-β-actin antibody was purchased from Abcam (Cambridge, UK). (TIF) Click here for additional data file.
Supplementary file pone.0045690.s004.tif: Figure S4 The Bag-1 peptide induces GCN2 phosphorylation. 22Rv.1 cells stably expressing the empty vector control or the Bag-1 peptide were treated with thapsigargin (300 nM) for 16 h and subjected to Western blot analysis using anti-phospho-GCN2, GCN2 and HA-specific antibodies. The filters used in this experiment for the GCN2 signals are the same filters used in Figure 3A. The HA-Bag-1 peptide and the β-actin signals are therefore identical to that of Figure 3A. (TIF) Click here for additional data file.

[2] = test system: LNCaP prostate cancer cells; experiment: ATF6 Western blot in LNCaP cells; format: cell-based; conditions: thapsigargin
Experimental: as §2

[3] = molecular target: T1, GST-fused GRP78 substrate binding domain (Homo sapiens, UniProt P11021); experiment: Fluorescence polarization competition assay; conditions: displacement of 10 nM FITC-labeled Bag-1 7-mer from 0.75 mg/ml GST-GRP78 SBD; competitor 100 µM to 0.1 nM, Tris-GSH buffer
T1 construct: GRP78-SBD (GRP78 409–651); made in house
Experimental: Fluorescence polarization assays were carried out using an Infinite F-200 reader (Tecan) with excitation at 490 nm and emission at 535 nm.
as §1, with “[…] The colonies were stained” for “FITC-peptide”, “quantified.” for “the FITC-peptide-protein complex were used as controls. Fluorescence polarization was determined as described above and IC50 values were determined in Sigma Plot.”

[4] = molecular target: T2, GST-fused GRP78-SBD (GRP78 409-651) (UniProt P11021 409-651); experiment: fluorescence polarisation; 10 nM FITC-labeled 7-mer peptide with dilutions of GST-fused GRP78 SBD in Tris-GSH buffer (50 mM Tris, 10 mM reduced glutathione, 0.1% BSA, pH 8.0), 5 h at room temperature; conditions: both partners purified
T2 construct: Used on beads in pull-downs and in solution (GST kept) in fluorescence polarisation; also called GST-GRP78(SBD); source: bacterially purified GST fusion (pGEX4T.1)

[5] = molecular target: T2, GST-fused GRP78-SBD (GRP78 409-651); experiment: fluorescence polarisation; competition: complex of 10 nM FITC-labeled 7-mer peptide and 0.75 mg/ml GST-fused GRP78 SBD against 100 µM to 0.1 nM unlabeled peptide in Tris-GSH buffer; conditions: both partners purified

T2 sequence (P11021 409-651): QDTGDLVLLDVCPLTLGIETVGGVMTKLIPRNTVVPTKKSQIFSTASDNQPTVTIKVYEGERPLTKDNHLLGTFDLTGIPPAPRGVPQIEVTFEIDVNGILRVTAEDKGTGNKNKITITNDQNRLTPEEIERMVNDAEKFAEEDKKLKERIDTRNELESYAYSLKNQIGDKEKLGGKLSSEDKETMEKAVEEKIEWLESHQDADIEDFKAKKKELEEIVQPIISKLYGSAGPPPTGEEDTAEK
T1 sequence (P11021 409-651): as above

Molecule: 19-mer mutant: 202–220 amino acid peptide with mutated core (VML exchanged with alanine residues) (TPLSALGIQDGCRAAAIGK; also: HA tag, end not given here)
22Rv.1 growth in clonogenic assay (22Rv.1 cells): significantly reduced the ability of the 19 amino acid sequence to inhibit 22Rv.1 cell growth

Molecule: C/C=C(/C)C(=O)O[C@H]1C(C)=C2[C@H]([C@@H]1OC(=O)CCCCCCC)[C@@](C)(OC(C)=O)C[C@H](OC(=O)CCC)[C@@]1(O)[C@H]2OC(=O)[C@@]1(C)O [thapsigargin, reference compound]
ATF6 expression ([1]; 22Rv.1 cells, thapsigargin 300 nM): enhanced the expression of this gene | UPR activation ([1]; 22Rv.1 vector control cells, 300 nM thapsigargin): all three arms of the UPR were activated | ATF6 expression (protein level) [2]: also seen in LNCaP prostate cancer cells at the protein level

Molecule: RAAAIGK [RAAAIGK]
IC50 [3]: > 100 µM

B1: FITC-labeled 7-mer Bag-1 peptide (214RVMLIGK220) (peptide)
peptide: RVMLIGK
modifications: also: FITC label, place not given here
notes: core peptide of Bag-1, residues 214-220 on Bag-1L numbering; also called FITC-peptide
Kd [4]: 5.7 ± 0.8 µM

More lines, now with the values ahead:

IC50 [5]: > 100 µM
Molecule: RAAAIGK [triple mutant Bag-1 7-mer peptide (214RAAAIGK220)]

IC50 [5]: 2.6 ± 0.5 µM
B2: wild-type Bag-1 7-mer peptide (214RVMLIGK220), unlabeled (peptide)
peptide: RVMLIGK
notes: core peptide of Bag-1, residues 214-220 on Bag-1L numbering; also called seven amino acid core peptide
